Experimental data taken from US8030547B2, “Gene coding for acetolactate synthase” (priority 2002, dated 2011).
Where two headings read alike, the source gives them in different places.

Experiments:
Assay type in all cases: biochemical, rice (Oryza sativa var. Kinmaze)
[1] = molecular target: T1, GST fusion P171H/W548L mutant ALS protein (Oryza sativa subsp. japonica, UniProt Q6K2E8, P171H/W548L); assay: Herbicide sensitivity of ALS protein expressed in E. coli (crude enzyme solution), P171H/W548L; details: for RS ratio: P171H/W548L mutant vs wild type; for Predicted RS ratio: product of RS ratios of the 1-point mutants
T1 construct: made in house; host or cells: E. coli, pGEX-2T(ALS-P171H, W548L mutant); crude supernatant
Procedure: (§1) ALS activity resulting from the mutant ALS protein contained in the eluted fractions apportioned into each test tube for apportioning was measured as follows. A reaction solution to be used in a measurement reaction was prepared by mixing an eluted fraction to be measured with a solution comprising 20 mM sodium pyruvate, 0.5 mM TPP, 0.5 mM MgCl2, 10 μM FAD and 20 mM potassium phosphate buffer (pH 7.5). One ml of this reaction solution was used. After the eluted fraction to be measured was added, the measurement reaction was performed at 30° C. for 40 to 60 minutes. Then, the reaction was stopped by addition of 0.1 ml of 6N sulfuric acid (or 0.25 N sodium hydroxide).
(§2) After the reaction was stopped, the reaction solution was incubated at 60° C. for 10 minutes, thereby converting acetolactate contained in the reaction solution to acetoin.
(§3) Then, to quantify acetoin contained in the reaction solution, 1 ml of 0.5% (w/v) creatine and 1 ml of 5% (w/v) α-naphthol dissolved in 2.5 N sodium hydroxide was added to the reaction solution, followed by incubation at 37° C. for 10 minutes. Acetoin was then quantified by color comparison of the absorbance (at 525 nm) of the reaction solution, thereby evaluating ALS activity. In addition, since the reaction solution contained a small amount of sodium pyruvate, reaction time 0 was used as control.
(§4) E. coli transformed with pGEX-2T(ALS-wild) constructed in Example 3(5), E. coli transformed with pGEX-2T(ALS-W548L mutant) constructed in Example 5, E. coli transformed with pGEX-2T(ALS-S627I mutant) constructed in Example 5, E. coli transformed with pGEX-2T(ALS P171H mutant) constructed in Example 6, E. coli transformed with pGEX-2T(ALS R172S mutant) constructed in Example 6, E. coli transformed with pGEX-2T(ALS P171H, R172S mutant) constructed in Example 7, E. coli transformed with pGEX-2T(ALS-P171H, W548L mutant) constructed in Example 8, E. coli transformed with pGEX-2T(ALS-P171H, S627I mutant) constructed in Example 8, and E. coli transformed with pGEX-2T(ALS-P171H, W548L, S627I mutant) constructed in Example 9 were respectively shake-cultured (pre-culture) at 27° C. in 2 ml of LB liquid medium containing ampicillin. These types of E. coli were respectively cultured in 250 ml of LB liquid medium containing ampicillin using 1 ml of the pre-culture solution. After culturing overnight, 1 mM IPTG was added to the media, and then culturing was performed for a further 3 to 4 hours, so that the expression of GST fusion protein was induced. In addition, the cells were stored at −80° C. after washing.
(§5) Preparation and purification of ALS from E. coli were performed by the following method. First, the pellet of the transformant E. coli stored at −80° C. was suspended in ALS extraction buffer (potassium phosphate buffer (pH 7.5) containing 30% glycerol and 0.5 mM MgCl2). Specifically, 2.5 ml of the buffer was added to the pellet obtained from 50 ml of the culture solution. The suspension was subjected to ultrasonication (Heat Systems-Ultrasonics, Sonicator W-225R, micro chip, output control 8, interval of approximately 1 second, twice (40 seconds each)), and subjected to centrifugation at 15000×g, 4° C. for 20 minutes, thereby obtaining the supernatant as a crude enzyme solution.
(§6) Herbicide sensitivity of the wild type ALS protein and that of mutant ALS protein were examined using the 9 types of crude enzyme solutions obtained in Example 10. Herbicide sensitivity test was performed according to procedures almost the same as those in Example 2. However, in this example, reaction temperature was 37° C., reaction time was 30 minutes, and 10 mM valine was added to the reaction solution to inhibit ALS activity derived from E. coli. Further, three types of herbicides, bispyribac-sodium, pyrithiobac-sodium, and pyriminobac, were used as PC herbicides; chlorsulfuron was used as a sulfonylurea herbicide; and imazaquin was used as an imidazolinon herbicide. […]

[2] = molecular target: T2, GST fusion P171H/S627I mutant ALS protein (Oryza sativa subsp. japonica, UniProt Q6K2E8, P171H/S627I); assay: Herbicide sensitivity of ALS protein expressed in E. coli (crude enzyme solution), P171H/S627I; details: for RS ratio: P171H/S627I mutant vs wild type; for Predicted RS ratio: product of RS ratios of the 1-point mutants
T2 construct: made in house; host or cells: E. coli, pGEX-2T(ALS-P171H, S627I mutant); crude supernatant
Procedure: as §1, §2, §3, §4, §5, §6

[3] = molecular target: T3, GST fusion P171H/R172S mutant ALS protein (Oryza sativa subsp. japonica, UniProt Q6K2E8, P171H/R172S); assay: Herbicide sensitivity of ALS protein expressed in E. coli (crude enzyme solution), P171H/R172S; details: for RS ratio: P171H/R172S mutant vs wild type; for Predicted RS ratio: product of RS ratios of the 1-point mutants
T3 construct: made in house; host or cells: E. coli JM109, pGEX-2T(ALS P171H, R172S mutant); crude supernatant
Procedure: as §1, §2, §3, §4, §5, §6

[4] = molecular target: T4, GST fusion R172S mutant ALS protein (Oryza sativa subsp. japonica, UniProt Q6K2E8, R172S); assay: Herbicide sensitivity of ALS protein expressed in E. coli (crude enzyme solution), R172S; details: for RS ratio: R172S mutant vs wild type
T4 construct: an expression vector having the full-length wild type ALS cDNA incorporated into the Eco RI site of pGEX-2T; made in house; host or cells: E. coli JM109, pGEX-2T(ALS R172S mutant); crude supernatant
Procedure: as §1, §2, §3, §4, §5, §6

[5] = molecular target: T5, GST fusion P171H mutant ALS protein (Oryza sativa subsp. japonica, UniProt Q6K2E8, P171H); assay: Herbicide sensitivity of ALS protein expressed in E. coli (crude enzyme solution), P171H; details: for RS ratio: P171H mutant vs wild type
T5 construct: an expression vector having the full-length wild type ALS cDNA incorporated into the Eco RI site of pGEX-2T; made in house; host or cells: E. coli JM109, pGEX-2T(ALS P171H mutant); crude supernatant
Procedure: as §1, §2, §3, §4, §5, §6

[6] = molecular target: T6, GST fusion S627I mutant ALS protein (Oryza sativa subsp. japonica, UniProt Q6K2E8, S627I); assay: Herbicide sensitivity of ALS protein expressed in E. coli (crude enzyme solution), S627I; details: for RS ratio: S627I mutant vs wild type
T6 construct: an expression vector having the full-length wild type ALS cDNA incorporated into the Eco RI site of pGEX-2T; made in house; host or cells: E. coli JM109, pGEX 2T(ALS-S627I mutant); crude supernatant
Procedure: as §1, §2, §3, §4, §5, §6

[7] = molecular target: T7, GST fusion W548L mutant ALS protein (Oryza sativa subsp. japonica, UniProt Q6K2E8, W548L); assay: Herbicide sensitivity of ALS protein expressed in E. coli (crude enzyme solution), W548L; details: for RS ratio: W548L mutant vs wild type
T7 construct: an expression vector having the full-length wild type ALS cDNA incorporated into the Eco RI site of pGEX-2T; made in house; host or cells: E. coli JM109, pGEX 2T(ALS-W548L mutant); crude supernatant
Procedure: as §1, §2, §3, §4, §5, §6

[8] = molecular target: T8, GST fusion wild type ALS protein (Oryza sativa subsp. japonica, UniProt Q6K2E8); assay: Herbicide sensitivity of ALS protein expressed in E. coli (crude enzyme solution), wild type; details: 37° C., 30 minutes, 10 mM valine, read-out: I50
T8 construct: an expression vector having the full-length wild type ALS cDNA incorporated into the Eco RI site of pGEX-2T; made in house; host or cells: E. coli JM109, pGEX-2T(ALS-wild); crude supernatant
Procedure: as §1, §2
as §3, with “control. […]” for “control.”

T2 sequence (Q6K2E8 44-644 P171H/S627I): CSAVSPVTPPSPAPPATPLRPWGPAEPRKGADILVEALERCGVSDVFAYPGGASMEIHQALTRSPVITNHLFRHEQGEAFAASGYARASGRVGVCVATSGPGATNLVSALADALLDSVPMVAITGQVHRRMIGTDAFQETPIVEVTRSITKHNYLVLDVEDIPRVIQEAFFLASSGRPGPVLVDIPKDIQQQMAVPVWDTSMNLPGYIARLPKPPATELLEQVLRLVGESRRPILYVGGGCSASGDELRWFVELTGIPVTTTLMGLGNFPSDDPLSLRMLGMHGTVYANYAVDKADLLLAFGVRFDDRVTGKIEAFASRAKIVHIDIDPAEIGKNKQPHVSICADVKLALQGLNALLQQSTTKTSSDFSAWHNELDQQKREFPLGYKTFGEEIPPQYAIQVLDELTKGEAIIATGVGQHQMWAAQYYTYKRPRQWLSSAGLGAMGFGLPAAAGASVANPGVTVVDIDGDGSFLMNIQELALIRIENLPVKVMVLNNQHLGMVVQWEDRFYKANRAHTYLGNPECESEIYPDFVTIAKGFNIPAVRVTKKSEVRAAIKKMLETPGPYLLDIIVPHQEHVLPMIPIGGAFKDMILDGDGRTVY
T3 sequence (Q6K2E8 44-644 P171H/R172S): as the sequence (Q6K2E8 44-644 P171H/S627I) above, with R129S, I584S counted along it
T5 sequence (Q6K2E8 44-644 P171H): as the sequence (Q6K2E8 44-644 P171H/S627I) above, with I584S counted along it
T6 sequence (Q6K2E8 44-644 S627I): as the sequence (Q6K2E8 44-644 P171H/S627I) above, with H128P counted along it
T7 sequence (Q6K2E8 44-644 W548L): as the sequence (Q6K2E8 44-644 P171H/S627I) above, with H128P, W505L, I584S counted along it
T4 sequence (Q6K2E8 44-644 R172S): as the sequence (Q6K2E8 44-644 P171H/S627I) above, with H128P, R129S, I584S counted along it
T1 sequence (Q6K2E8 44-644 P171H/W548L): as the sequence (Q6K2E8 44-644 P171H/S627I) above, with W505L, I584S counted along it
T8 sequence (Q6K2E8 44-644): as the sequence (Q6K2E8 44-644 P171H/S627I) above, with H128P, I584S counted along it

Structure (SMILES) | RS ratio [1] | Predicted RS ratio ([1]; P171H/W548L mutant) | RS ratio/ predicted RS ratio ([2]; P171H/S627I mutant) | RS ratio [2] | Predicted RS ratio ([2]; P171H/S627I mutant) | RS ratio/ predicted RS ratio ([3]; P171H/R172S mutant) | RS ratio [3] | Predicted RS ratio ([3]; P171H/R172S mutant) | RS ratio [4] | RS ratio [5] | RS ratio [6] | RS ratio [7] | also measured
COc1cc(OC)nc(Sc2cccc(Cl)c2C(=O)O)n1 [pyrithiobac-sodium] | >9100 | >31000 | 1.3 | 850 | 680 | 3.8 | 13 | 3.4 | 1 | 3.4 | 200 | >9100 | inhibition at 100 µM ([1]; read-out: inhibition % at the highest concentration among the concentrations tested, P171H/W548L mutant, in 100 μM): 20%; IC50 [2]: 9400 nM; IC50 [3]: 140 nM; IC50 [4]: 11 nM; IC50 [5]: 37 nM; IC50 [6]: 2200 nM; inhibition at 100 µM ([7]; read-out: inhibition % at the highest concentration among the concentrations tested, W548L mutant, in 100 μM): 41%
CON=C(C)c1cccc(Oc2nc(OC)cc(OC)n2)c1C(=O)O [pyriminobac] | >13000 | 23000 | >0.93 | >13000 | 14000 | 0.85 | 5.1 | 6 | 1.2 | 5 | 2800 | 4500 | RS ratio/ predicted RS ratio ([1]; P171H/W548L mutant): >0.57; inhibition % at the highest concentration among the concentrations tested ([1]; P171H/W548L mutant, in 100 μM): 11%; IC50 [8]: 8 nM; inhibition % at the highest concentration among the concentrations tested ([2]; P171H/S627I mutant, in 100 μM): 21%; IC50 ([3]; P171H/R172S mutant, 37° C., 30 minutes, 10 mM valine, read-out: I50): 41 nM; IC50 ([4]; R172S mutant, 37° C., 30 minutes, 10 mM valine, read-out: I50): 9.2 nM; IC50 ([5]; P171H mutant, 37° C., 30 minutes, 10 mM valine, read-out: I50): 40 nM; IC50 ([6]; S627I mutant, 37° C., 30 minutes, 10 mM valine, read-out: I50): 22000 nM; IC50 ([7]; W548L mutant, 37° C., 30 minutes, 10 mM valine, read-out: I50): 36000 nM
